For orientation: melting point means the temperature, or range, at which the solid turns liquid.

`CC(=O)OC(C)c1ccc2occ(-c3nnn[nH]3)c(=O)c2c1` (centres undefined): the melting point fell in the range of 231 to 232 °C.
In turn, `COC(=O)c1cc(Cl)c(NC(C)=O)cc1OC1CCOC1=O` (centres undefined) returned a melting point of 118 to 119 °C.
The same measure for `CCOC(=O)C1(C)C(=O)Nc2cc(N)ccc21` (centres undefined): 248 °C; for `COc1ccc2c(c1)C1=C(SCC3(CCNCC3)O1)C(=O)C2=O`: 224 to 226 °C; for `Nc1ccc2c3c(cccc13)C(=O)N([C@@H]1CN3CCC1CC3)C2=O`: 305 to 308 °C.
Compound `c1cn(Cc2ccc3c(c2)-c2[nH]nc(-c4ccsc4)c2C3)nn1` returned a melting point of 249 to 252 °C.
The same measure for `CCOCc1nc2c(N)nc3cc(Br)cnc3c2n1CC(C)(C)F`: 221 to 222 °C.
The same measure for `O=c1[nH]c2cccc(Br)c2c(=O)o1`: 280 to 281 °C.
In turn, `Fc1cc(F)c(-c2ccccc2)c(F)c1F` showed a melting point of 86 to 88 °C.
In the case of `CSc1nnc(C(O)(c2ccc(Cl)cc2)c2ccc3nc(C)cc(-c4cccc(Cl)c4)c3c2)n1C` (centres undefined), the melting point was determined as 142 °C.
The same measure for `CCOC(=O)C1C=Nc2c(cccc2[N+](=O)[O-])C1=O` (centres undefined): 241 to 243 °C.
`CCOC(=O)CCC(NC(=O)c1ccc(CNCC2CNc3nc(NC(=O)C(C)(C)C)nc(O)c3C2)cc1)C(=O)OCC` (centres undefined) displayed a melting point of 146 to 147 °C.
The same measure for `CCCc1c2c(c3oc(C(=O)O)cc(=O)c3c1O)CCCC2`: 226 to 227 °C; for `OCC1OC(n2cnc3c(Nc4ccc(Cl)cc4)ccnc32)C(O)C1O` (centres undefined): 215 °C.
On to `CCCOc1cc(NC(=O)C[C@H]2O[C@H](c3cccc(OC)c3OC)c3cc(Cl)ccc3N(CC(C)(C)COC(C)=O)C2=O)cc2cc(C(=O)OC)oc12`, for which the melting point was in the range of 146 to 147 °C.
The same measure for `CCOC(=O)c1cc(Nc2cccnc2)c(=O)n(CC)n1`: 166 to 167 °C.
The same measure for `COC1=CC(=O)C(OC)=C(CCCC2=C(OC)C(=O)C=C(OC)C2=O)C1=O`: 157 to 159 °C; for `C[Si](C)(C)CCC1=C(OC(=O)c2ccccc2)C(=O)c2ccccc2C1=O`: 92 to 95 °C.
The same measure for `CONC(=O)N1N=C(c2ccc([N+](=O)[O-])c(C)c2)c2cc3c(cc2CC1C)OCO3` (centres undefined): 192 to 195 °C; for `CCN1C(=O)CCC(C)(C)c2cc([N+](=O)[O-])ccc21`: 67 °C.
Turning to `CC(C)(C)OC(=O)NC(Cc1c[nH]cn1)C(=O)N1CCCC1C(N)=O` (centres undefined), the melting point is 97 to 101 °C.
The compound `COc1cc2c(cc1C)C1(CO2)C(=O)N(CC2CCCCO2)c2ccccc21` (centres undefined) gave a melting point of 180 to 182 °C.
The same measure for `COc1cc(OCCN2CCCC2)cc(-c2nc3cc(OC)cc(OC)c3c(=O)[nH]2)c1`: 159 to 160 °C.
The same measure for `CCOC(=O)C(=O)c1cc(OC)c(OCOC)c2c(Cc3ccccc3)cccc12`: 70 to 72 °C; for `CC(=S)NC(C(=O)NCc1ccccc1)c1ccco1` (centres undefined): 78 to 80 °C.
The same measure for `N#Cc1c(OCCO)cccc1[N+](=O)[O-]`: 140 to 142 °C; for `O=c1[nH]c2ccc(C3=NOC(CCN4CCC(Cc5ccc(F)cc5)CC4)C3)cc2o1` (centres undefined): 254 to 258 °C; for `CSC1=C(c2ccccc2)C(=O)N(Nc2ccccc2)C1=O`: 86 to 88 °C.
`CCCCCCCNC(=O)Nc1ccccc1C(=O)NC1CCCNC1` (centres undefined) returned a melting point of 165 °C.
The same measure for `CC(=O)OC1CSC(Oc2ccc(C(C)=O)nc2)C(OC(C)=O)C1OC(C)=O` (centres undefined): 149 °C; for `CCOC(=O)C=CC(=O)Nc1ccc(Cl)cc1C(=O)c1ccccc1Cl`: 113 to 114 °C.
In turn, `Cc1cc(OCC(O)CNC(C)(C)C)ccc1C=O` (centres undefined) showed a melting point of 82 to 84 °C.
The same measure for `CC(C)C(C)(C(N)=O)N1C(=O)c2ccc3ccn(C)c3c2C1=O` (centres undefined): 184 to 189 °C.
The same measure for `COc1cc(C=O)c(Br)c(OC)c1OC`: 69 °C; for `COCCOC(=O)OC[C@@H]1CC(c2ccc(-c3ccc(N4C[C@H](Cn5ccnn5)OC4=O)cc3F)cn2)=NO1`: 112 °C.
Compound `CCc1nc2c(C)c(Br)c(C)nc2n1Cc1ccc2oc(-c3cccc(F)c3C(=O)O)c(Br)c2c1` showed a melting point of 223 to 225 °C.
The same measure for `CC=CCn1c(Nc2cc(C)cc(C)c2)c(C(C)C)c(=O)[nH]c1=O`: 186 to 187 °C.
`CS(=O)(=O)Nc1cccc(S(F)(F)(F)(F)F)c1`: the melting point is 80 to 82 °C.
For `NP(N)(=O)OCCCCl`, the melting point was in the range of 111 to 112 °C.
The same measure for `Oc1cc(Br)c(Br)cc1O`: 110 to 111 °C; for `COc1ccc(SCC(=O)c2ccccc2)cc1C`: 41 to 43 °C; for `CC(CCN1C(=O)c2ccccc2C1=O)Cc1ccc(C(=O)CCC(=O)O)cc1` (centres undefined): 142 to 143 °C.
The same measure for `C#Cc1c(C#N)nn(-c2c(Cl)cc(C(F)(F)F)cc2Cl)c1N`: 215 to 216 °C; for `C#CCN1N=C(c2ccc(Cl)cc2)CN(C)C1=O`: 159 to 160 °C; for `CCS(=O)(=O)c1sc(S(N)(=O)=O)cc1C(C)NC(C)=O` (centres undefined): 213 to 220 °C.
The same measure for `COC(=O)Nc1cc(Cl)nc(N)n1`: 225 to 226 °C.
Turning to `On1c(C(F)(F)F)nc2c(OCc3ccccc3)cc(Br)cc21`, the melting point lay in the range of 211 to 214 °C.
The same measure for `COC(=O)N1C(=S)NC(C)=C(C(=O)OC(C)C)C1c1cccc([N+](=O)[O-])c1` (centres undefined): 130 to 132 °C; for `CCCC(=O)c1cnc2c(OC)cccc2c1Nc1ccc(OC(=O)CC)cc1C`: 163 to 165 °C.
`Fc1ccc2c(CCCN3CCN(c4n[nH]c5ccccc45)CC3)noc2c1` came in with a melting point of 139 to 141 °C.
Consider `CCN(CC)c1nc(NCCCCO)nc(Nc2ccc3cc(-c4ccccc4)c(=O)oc3c2)n1`, for which the melting point was 124 to 126 °C.
The same measure for `CC(C)(C)S(=O)(=O)NCc1cc(-c2ccc(Cl)c(Cl)c2)n(Cc2ccc(Cl)c(Cl)c2)n1`: 127 °C.
The same measure for `CCCc1oc(C)cc1C(=O)O`: 91 to 102 °C; for `CC(C)(C)c1ccc(N(c2ccc(-c3ccc(Nc4ccccc4)cc3)cc2)c2ccc(C(C)(C)C)cc2)cc1`: 161 to 162 °C; for `COc1ccc(Br)c(-n2c(=O)[nH]c(=O)n(C)c2=O)c1`: 185 to 187 °C.
For the compound `CCN(CC)CCNC(=O)c1cccc2nc3cc(Br)ccc3nc12`, the melting point is 107 to 109 °C.
The same measure for `Cc1nc2ccccc2n1CCc1ccccc1`: 104 to 106 °C.
The same measure for `CCOC(=O)c1c(Cc2ccccc2)c2ccccc2[nH]c1=O`: 230 °C; for `O=C(NC1CN(C(=O)Nc2ccc(OC(F)(F)F)c(Cl)c2)N=C1c1ccc(Br)cc1)c1ccc(Cl)cc1` (centres undefined): more than 200 °C; for `O=C1c2ccccc2C(=O)N1c1ccccc1CSc1nccn1-c1ccncc1`: 145 to 147 °C.
The same measure for `COc1ccc(N)cc1-c1nc(C)c(-c2cccnc2)[nH]1`: 172 to 173 °C.
As to `COC(=O)C(C)=C(C)C(=O)N(C(=O)c1ccccc1)c1cc(OC)c(Cl)cc1F`, the melting point is 142 to 145 °C.
The same measure for `C=CCN(CC=C)c1ccc2[nH]c3cnc(C(=O)OCC)nc3c2c1`: 188 to 190 °C; for `CC(C)c1ccc(N)c(C(=O)NCC2CCN(C(c3ccccc3)c3ccccc3)CC2)c1`: 114 to 116 °C.
For `O=C(O)CCc1oc(NC2CCCCC2)nc1-c1ccc(Cl)cc1`, the melting point lay in the range of 237 to 238 °C.
The same measure for `CCCc1nn(C)c2c(=O)[nH]c(Cc3ccc(N(CC)C(C)=O)cc3)nc12`: 149 to 151 °C.
In turn, `N#CC12CC(c3ccccc31)c1ccccc12` returned a melting point of 120 to 123 °C.
The same measure for `CC(C)OCCNc1ccc(C(=O)N2CCN(CCc3ccc(Cl)cc3)CC2)cc1`: 130 to 132 °C.
The same measure for `O=C1Nc2ccc(Cl)cc2C1CC1CCCCC1` (centres undefined): 152 to 153 °C; for `CNCc1ccc(S(C)(=O)=O)c(S(=O)(=O)NC(C)(C)C)c1`: 76 to 78 °C.
As to `COc1ccccc1C(=O)N1CCN(CC2(C)Cc3c(C)c(N)c(C)c(C)c3O2)CC1` (centres undefined), the melting point lay within 128 to 131 °C.
As to `CSc1ccc(C(=O)c2ccc(F)cc2)[nH]1`, the melting point was 112 to 113 °C.
The same measure for `Cc1cc(C)c2cc(-c3ccccc3)c(N)nc2n1`: 191 to 195 °C.
`Nc1nc(OCc2ccc(F)cc2)ncc1F` showed a melting point of 129 to 131 °C.
The same measure for `CCNC(=O)N(C)Cc1cccc2c1CN(C1CCC(=O)NC1=O)C2=O` (centres undefined): 183 to 185 °C; for `COc1ccc(C(=O)c2cc3cccc(Br)c3o2)cc1OC`: 137 to 138 °C; for `CC1(C)CC(=O)C2=C(C1)NC1=C(C(=O)CC(C)(C)C1)C2c1ccc(Cl)c(Cl)c1`: more than 300 °C.
Take `O=C(C=Cc1ccc(F)c(F)c1)OCCc1ccccc1`: the melting point is 53 to 57 °C.
The compound `c1ccc(COc2ccc(-c3nc(COc4cccc(CCCn5ccnc5)c4)co3)cc2)cc1` returned a melting point of 144 to 145 °C.
Compound `CCN(CC)CCNc1ccc(NCCNCCO)c2c1C(=O)c1c(O)ccc(O)c1C2=O` showed a melting point of 165 to 167 °C.
Compound `COc1cc(-c2nc(N(C)CCO)c3c(C)c(C#N)sc3n2)cc(OC)c1OC` registered a melting point of 164 to 166 °C.
Take `CN(C)c1nc2c(c(N3CCN(Cc4ccccc4)CC3)n1)SCCC2`: the melting point lay within 106 to 108 °C.
The same measure for `COc1ccc(COCC(O)CO)cc1` (centres undefined): 51 to 53 °C; for `COc1cc2c(cc1OC)CN(CCOc1ccc(NC(=O)c3cccc4c(=O)c5ccccc5[nH]c34)cc1)CC2`: 154 °C.
The same measure for `CCOc1nn(Cc2ccc(OCc3csc(-c4ccccc4)n3)nc2)cc1CCC(=O)O`: 121 to 122 °C; for `CCCn1c(=O)n2c(=O)n(COCc3ccccc3)nc2c2c1ncn2COCc1ccccc1`: 88.9 to 90.3 °C; for `COC(=O)C1CN(C)CCC1c1ccc(Cl)c(Cl)c1` (centres undefined): 70 to 75 °C.
The same measure for `C[C@H](C(=O)O)n1ncn(-c2ccc(OCC(F)(F)C(F)F)cc2)c1=O`: 162 to 165 °C.
The compound `C=C(C)n1c(=O)n(CCCCl)c2ccccc21` showed a melting point of 115 °C.

Values taken from a melting point compilation (Tetko et al.; mined from patent text by program, amines drawn as free bases though some values may be those of a salt).
